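Interpolation was linear, between the two tested concentrations surrounding the appropriate level; five concentrations were tested over 48 hours in 96-well plates. TGI is the concentration that stops growth completely.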 Where only a bound is given, the exact number is not on record here.

Holding throughout (experiment): NCI-60 cell line screen, 48 h
The subject of assay [1] is HCT-116 colon.
Assay [2] deals with SW-620 colon.
Assay [3] has as its system SNB-19 CNS.
For assay [4], the system named is CAKI-1 renal.
For assay [5], the system named is KM12 colon.
The test system of assay [6] is SF-268 CNS.
The test system of assay [7] is SK-OV-3 ovarian.
Assay [8] relates to HT29 colon.
In assay [9] the test system is IGROV1 ovarian.
Assay [10] has as its system K-562 leukemia.
Assay [11] deals with OVCAR-5 ovarian.
Assay [12] deals with OVCAR-4 ovarian.
Assay [13] concerns NCI-H226 lung.
The subject of assay [14] is 786-0 renal.
Assay [15] concerns MCF7 breast.
The subject of assay [16] is NCI/ADR-RES ovarian.
For assay [17], the system named is T-47D breast.

Consider `COc1ccccc1OCC(COC(=O)Nc1ccccc1)OC(=O)Nc1ccccc1` (stereo not drawn), for which the TGI in assay [1], in [2], in assay [3], in assay [4], in assay [5] and in assay [6] was above 100 µM in each case. Further, the TGI in [7], in [8], in assay [9], in assay [10], in assay [11] and in assay [12] was above 100 µM each time. In addition, the TGI in assay [13] is above 100 µM.

Take `CC(C(=O)OCc1ccccc1)N(Cc1ccccc1)Cc1ccccc1` (stereo not drawn): the TGI in assay [1], in assay [2], in [3], in [4], in assay [5] and in [6] was above 100 µM throughout. The TGI in assay [7], in [8], in assay [9], in [10], in assay [11] and in [12] was above 100 µM in each case.

Consider `O=C(NNC(=S)Nc1ccccc1)c1nsc2ccccc12`, for which the TGI in [1], in [2], in [3], in assay [5], in assay [6] and in assay [8] was above 100 µM throughout. Further, the TGI in [9], in assay [10], in assay [11] and in [12] was above 100 µM throughout.

As to `CSC(SC)=C(C#N)C(=O)Nc1cccc(Cl)c1`, the TGI in assay [14], in assay [1], in [2], in assay [3], in assay [4] and in assay [5] was above 100 µM throughout. In addition, the TGI in assay [6], in assay [7], in assay [15], in assay [8], in assay [9] and in [10] was above 100 µM in each case. Besides, the TGI in [11], in assay [12], in assay [16] and in assay [13] was above 100 µM in each case.

As for `C#CC(O)(c1nc2ccccc2s1)c1nc2ccccc2s1`, the TGI is 38.9 µM in assay [14]; 30.2 µM in assay [1]; 88.9 µM in [17]; above 100 µM in assay [2]; above 100 µM in [3]; above 100 µM in [4]. The TGI in assay [5] was above 100 µM; in assay [6], above 100 µM; in [15] it was 52.9 µM; in assay [8], 77.6 µM; in assay [9], 31.6 µM; in [10] it was above 100 µM. The results for the TGI in assay [11], in [12] and in assay [16] were 51.6 µM, above 100 µM and 75.6 µM, respectively.

Consider `ClC(Cl)(Cl)C1CCOC1n1nnc2ccccc21` (stereo not drawn), for which the TGI in assay [14], in [1], in assay [17], in assay [4], in assay [6] and in assay [7] was above 100 µM in each case. The TGI in [15] is above 100 µM; in [8], above 100 µM; in assay [9], above 100 µM; in [10], 63.9 µM; in assay [11], above 100 µM; in [16], above 100 µM. The compound further returned a TGI in assay [13] above 100 µM.

For the compound `CC(C)(C)OC(=O)NC12C3C4C1C1C2C3C41NC(=O)OC(C)(C)C` (stereo not drawn), the TGI in assay [14], in [1], in assay [17], in assay [2], in assay [3] and in assay [4] was above 100 µM throughout. For the same compound, the TGI in assay [5] is 39.3 µM; in [6], above 100 µM; in [15], 95.9 µM; in [8], above 100 µM; in assay [9] it was above 100 µM; in [10], above 100 µM. The TGI in assay [11], in assay [12] and in assay [16] was above 100 µM throughout.

`O=C(CCN1CCOCC1)/C(=C/c1ccccc1)c1ccccc1`: the TGI in assay [1] amounted to 12.3 µM; in assay [2], 6.9 µM; in assay [3], 23.4 µM; in [4], 16.9 µM; in assay [5], 16.5 µM; in [6], 19 µM. For the same compound, the TGI in assay [7] is 43.3 µM; in assay [15], 18.8 µM; in [8] it was 17.6 µM; in [9] it was 22.8 µM; in assay [10], 4.24 µM; in [11], 30.4 µM. Besides, the TGI came to 23.8 µM in assay [12], 17.5 µM in assay [16] and 21.3 µM in assay [13].

Take `COc1ccc(C2C3=C(N=C4SC(C(C)=O)=C(C)N42)c2ccccc2CC3)cc1` (stereo not drawn): the TGI in assay [14], in assay [1], in assay [17], in assay [2], in [3] and in assay [5] was above 100 µM in each case. The TGI in assay [6], in [7], in assay [15], in assay [8], in [9] and in [11] was above 100 µM in each case. The TGI in assay [12] and in assay [13] was above 100 µM throughout.

With `COC(C/C(=C/CO[Si](C(C)C)(C(C)C)C(C)C)C(=O)N(COCC[Si](C)(C)C)c1ccccc1I)OC`, the TGI was above 100 µM in [14]; 46.2 µM in [1]; above 100 µM in assay [17]; above 100 µM in assay [2]; above 100 µM in assay [3]; above 100 µM in [4]. For the same compound, the TGI in [5] is above 100 µM; in assay [7], above 100 µM; in [8], above 100 µM; in [9], 27.4 µM; in [10], above 100 µM; in [11], 87.2 µM. Besides, the TGI in [12], in [16] and in [13] was above 100 µM each time.

The values are drawn from PubChem BioAssay (NCI).
